The test addresses T1, kynurenine-3-hydroxylase (Rattus norvegicus, UniProt O88867).
T1 construct: Rat liver mitochondrial extract was used as enzymatic preparation for this assay; from tissue; host or cells: rat liver mitochondrial extract
The experiment in a line: KYN-3-OH inhibition; kynurenine 3-hydroxylase assay based on enzymatic synthesis of tritiated water in rat liver mitochondrial extract. It is filed as biochemical. The following applies: 37° C., 30 min, pH 8.1, 0.025 mM L-Kynurenine, 0.8 mM NADPH. As to the method: The assay for kynurenine 3-hydroxylase is based on the enzymatic synthesis of tritiated water during the hydroxylation reaction. Radiolabeled water was quantified following selective adsorption of the isotopic substrate and its metabolite with activated charcoal.
Rat liver mitochondrial extract was used as enzymatic preparation for this assay.
The assay for kynurenine 3-hydroxylase activity was carried out at 37° C. for a time of 30 min. The reaction mixture having a total volume of […] was constituted of 44 mg of suspended extract, 100 mM Tris/Cl^- buffer pH 8.1, 10 mM EDTA, 100 mM KCl, 0.8 mM NADPH, 0.025 mM L-Kynurenine, 0.5 mCi L-(3,5-^3 H)Kynurenine (10 Ci/mmol) and […] of different concentration of inhibitor solutions. After the incubation, the reaction was terminated by adding 1 ml of 7.5% (W/v) activated charcoal, vortexed and centrifuged for 7 min.
A […] aliquot of supernatant was counted by scintillation spectroscopy in 5 ml of liquid scintillation.

Among the data in patent publication US6133302A, “5-(3-Phenyl-3-oxo-propyl)-1H-tetrazole derivatives” (Pharmacia & Upjohn SpA, priority 1997, dated 2000) are IC50 values, retold here.

pIC50: −log10 of the molar value.

T1 sequence (O88867 whole entry): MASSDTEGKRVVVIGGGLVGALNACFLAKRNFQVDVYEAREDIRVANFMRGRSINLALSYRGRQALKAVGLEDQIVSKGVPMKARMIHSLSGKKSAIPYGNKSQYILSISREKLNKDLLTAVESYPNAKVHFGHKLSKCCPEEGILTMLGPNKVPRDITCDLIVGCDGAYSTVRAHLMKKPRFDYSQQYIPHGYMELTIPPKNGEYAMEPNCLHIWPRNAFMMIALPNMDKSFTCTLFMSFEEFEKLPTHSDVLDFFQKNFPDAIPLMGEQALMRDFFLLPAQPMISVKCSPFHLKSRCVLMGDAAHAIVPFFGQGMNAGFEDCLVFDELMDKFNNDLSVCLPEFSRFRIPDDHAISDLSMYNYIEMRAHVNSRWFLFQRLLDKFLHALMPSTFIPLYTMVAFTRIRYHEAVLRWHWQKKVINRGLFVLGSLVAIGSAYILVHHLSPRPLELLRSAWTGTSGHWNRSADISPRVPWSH

As a reminder, the pIC50 is the negative decadic logarithm of the IC50, by convention in mol/L. Lower therefore signals a high IC50. The molecule `O=C(CC(Cc1ccccc1)c1nnn[nH]1)c1ccc(Cl)c(Cl)c1` (stereo not shown) [PNU-168778, 5-[1-benzyl-3-(3,4-dichlorophenyl)-3-oxo-propyl]-1H-tetrazole] had a pIC50 of 5.63.
